Earlier results in patent US20090137653A1, “SUBSTITUTED BENZYLAMINES AS CYP2A INHIBITORS AND USES THEREOF TO TREAT NICOTINE DEPENDENCE” (INFLAYZME PHARMACEUTICALS LTD., priority 2005, published 2009).

Columns and labels:
CYP2A6 = CYP2A6 (Homo sapiens, UniProt P11509); conditions: read-out: CYP2A6 Ki; human liver microsomes
Chain of CYP2A6 (P11509 whole entry): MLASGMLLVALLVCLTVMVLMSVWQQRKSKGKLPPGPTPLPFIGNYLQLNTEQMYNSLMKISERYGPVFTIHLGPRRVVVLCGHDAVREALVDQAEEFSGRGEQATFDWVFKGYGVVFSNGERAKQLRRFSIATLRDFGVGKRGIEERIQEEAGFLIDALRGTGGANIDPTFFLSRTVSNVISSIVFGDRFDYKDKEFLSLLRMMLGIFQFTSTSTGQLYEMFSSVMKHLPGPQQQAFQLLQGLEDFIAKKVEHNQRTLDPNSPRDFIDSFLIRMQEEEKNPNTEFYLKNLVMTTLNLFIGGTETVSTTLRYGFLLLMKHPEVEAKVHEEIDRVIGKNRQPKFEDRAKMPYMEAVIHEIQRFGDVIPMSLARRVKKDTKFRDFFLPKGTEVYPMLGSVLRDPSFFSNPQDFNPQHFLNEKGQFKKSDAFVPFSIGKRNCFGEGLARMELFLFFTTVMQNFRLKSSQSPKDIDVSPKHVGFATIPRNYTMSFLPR

## CN1CCCC1c1cccnc1 (stereo not drawn) [nicotine]
In vivo
  half-life: 1 to 2 h
Taken orally, liver
  eliminated by first pass effect: around 70%

## N[C@@H]1C[C@H]1c1ccccc1 (racemic) [tranylcypromine]
CYP2A6
  Ki: 200 nM
